Results published in patent US12473537B2, “Three-dimensional cell culture, devices, and use thereof” (THE BROAD INSTITUTE, INC., priority 2020, dated 2025).

How the values were obtained:
Assay type in all cases: cell-based, human
[1] = test system: pancreatic progenitor cells; test: Notch inhibition in DP, immunocytochemical staining for Pdx-1 and Nkx6.1; conditions: 10 μM, S4d5
Description: Next, Applicant further examined whether other junction signaling pathways critical for β-cell differentiation, such as the Notch signaling pathway, could be supported in the DP, as Notch inhibition in pancreatic progenitor cells is known to promote differentiation into the endocrine lineage and β-cell production. To measure this in the DP, Applicant supplemented the differentiation protocol of pancreatic progenitor cells with Notch inhibitor (NI) [γ-secretase inhibitor, N—[N-(3,5-Difluorophenacetyl)-L-alanyl]-S-phenylglycine t-butyl ester (DAPT) (10 μM)] and examined the cells at the end of pancreatic progenitor cells (stage 4 day 5 (S4d5)) by immunocytochemistry and gene expression analysis (FIGS. 8A-8D). […] Upon establishing the differentiation capabilities of the DP, Applicant then reasoned whether differentiated SC β cells also elicited proper insulin secretion functionality. The DP also supported insulin secretion from SC β cells in response to glucose stimulation, and similar secretion indices were noted between DP and SF (FIG. 3J).
Compound treatment. Cells were seeded into the DP and incubated with their respective media as outlined in the section above and allowed to settle for 24 hours (day 1). […] For the dose-cytotoxicity study, cell viability was measured by AlamarBlue™ assay following the manufacturer's protocol (Invitrogen, Carlsbad, CA, USA). […]

Notch signaling [2] = test: Notch inhibition in pancreatic progenitor cells in Disque platform (DP), qRT-PCR gene expression; conditions: 10 μM, 4 days, cells cultured in DP
Description: (§1) Next, Applicant further examined whether other junction signaling pathways critical for β-cell differentiation, such as the Notch signaling pathway, could be supported in the DP, as Notch inhibition in pancreatic progenitor cells is known to promote differentiation into the endocrine lineage and β-cell production. To measure this in the DP, Applicant supplemented the differentiation protocol of pancreatic progenitor cells with Notch inhibitor (NI) [γ-secretase inhibitor, N—[N-(3,5-Difluorophenacetyl)-L-alanyl]-S-phenylglycine t-butyl ester (DAPT) (10 μM)] and examined the cells at the end of pancreatic progenitor cells (stage 4 day 5 (S4d5)) by immunocytochemistry and gene expression analysis (FIGS. 8A-8D). […]
(§2) Compound treatment. […] For the dose-cytotoxicity study, cell viability was measured by AlamarBlue™ assay following the manufacturer's protocol (Invitrogen, Carlsbad, CA, USA).
(§3) Gene Expression Analysis. […] The RNA concentration was determined by measuring absorbance at 260 nm using a spectrophotometer. […] The profiles of gene expression in SC β-cells were quantified for each target (human E-cad, CX-36, ZnT8, Pdx-1, Nkx6.1, Insulin, and glyceraldehyde 3-phosphate dehydrogenase (GAPDH), QuantiTect primary assay). The expression level of target genes was determined by the comparative Ct method, whereby the target is normalized to the endogenous reference (GAPDH) 40. […]

Notch signaling [3] = test: Notch inhibition in 2D culture, Hes1 gene expression; conditions: 10 μM
Description: as §1, §2, §3

DYRKIA = test: NFAT1 nuclear translocation as readout for DYRKIA inhibition
Method: Immunocytochemical staining. The Immunofluorescent staining was performed as previously described in the Flow cytometry section. The additional primary antibodies for immunocytochemical staining were used: rabbit polyclonal anti-NFAT1 (1:500, ab244310, Abcam, Cambridge, MA, USA), mouse monoclonal anti-E-cadherin (1:500, Abcam) and rabbit polyclonal anti-connexin 36 (1:500, Abcam). Secondary antibodies were stained using previously described antibodies noted within the flow cytometry method. Cells were then counter-stained with 4′, 6-Diamidino-2-phenylindole (DAPI, MilliporeSigma, Burlington, MA, USA) or 2,5′-Bi-1H-benzimidazole (Hoechst, Invitrogen). HTS imaging was performed using the Opera Phenix™ High Content Screening System (PerkinElmer, Waltham, MA, USA). Fluorescent and bright-field imaging were performed using the Eclipse TE2000-U (Nikon, Tokyo, Japan). Confocal imaging and z-stack 3D reconstruction were performed using LSM 800 with Airyscan (Zeiss, Oberkochen, Germany). Analysis was performed using ImageJ (NIH) and Adobe Photoshop (Adobe, San Jose, CA, USA) software.

SC β cells [4] = test: Proliferation of SC β cells in DP (EdU or Ki67, flow cytometry)
Method: Applicant then compared ZnPD6 and harmine over the range of 0.625 to 20 μM based on the percentage of proliferating mature SC β cells using the c-peptide/EdU co-positive metric, wherein EdU is a proliferation marker that identifies cells undergoing DNA replication in the S phase (FIG. 5D). […] Despite releasing the same drug following ZnPD cleavage, Applicant were interested in determining what caused the difference in cytotoxicity and proliferation between ZnPD6 and unmodified harmine. Applicant then examined harmine and ZnPD6 at their optimal concentrations for proliferation, 10 μM and 20 μM, respectively.
Compound treatment. Cells were seeded into the DP and incubated with their respective media as outlined in the section above and allowed to settle for 24 hours (day 1). For compound treatment (ZnPDs and small molecule cargos), the media were replaced with new media supplemented with prodrug at different concentrations on day 3 and day 6 for a total treatment of 6 days. Cell analyses was performed after 7 days in culture. For targeting study with ZnPD4, cells were treated with ZnPD4 for 2 hours. […] For the dose-cytotoxicity study, cell viability was measured by AlamarBlue™ assay following the manufacturer's protocol (Invitrogen, Carlsbad, CA, USA).
Flow cytometry. […] Cells were analyzed using a BD FACSAria™ II flow cytometer (BD Biosciences, Franklin Lakes, NJ, USA). […]

SC β cells [5] = test: Dose-cytotoxicity study, AlamarBlue assay; conditions: 0.032~500 μM
Method: Compound treatment. […] For compound treatment (ZnPDs and small molecule cargos), the media were replaced with new media supplemented with prodrug at different concentrations on day 3 and day 6 for a total treatment of 6 days. Cell analyses was performed after 7 days in culture. […] For the dose-cytotoxicity study, cell viability was measured by AlamarBlue™ assay following the manufacturer's protocol (Invitrogen, Carlsbad, CA, USA).
Cell viability test. To determine the viability of SC β-cells in the DP and SF, a Live/Dead Viability and Cytotoxicity Assay Kit (AlamarBlue™, Invitrogen) were used according to the manufacturer's instructions.

Row | Compound | Pdx-1-positive progenitor cells after Notch inhibition [1] | increase in Pdx-1 expression (Notch signaling [2]; S4d5, vs control) | decrease in hairy and enhancer of split-1 (Hes1) expression (Notch signaling [2]; vs control) | Hes1 expression response to Notch inhibition (Notch signaling [3]) | NFAT1 nuclear translocation over time, in words (DYRKIA; FIG. 5H) | NFAT1 nuclear translocation (DYRKIA; at 24 hours) | NFAT1 nuclear translocation (DYRKIA; value before the decrease) | population of proliferating monohormonal SC β cells (C-peptide+GCG-EdU+) (SC β cells [4]; DP, flow cytometry, compared to DMSO control or negative control) | optimal concentration for proliferation (SC β cells [4]; SC β cells in DP) | concentration above which a cytotoxic effect is seen (SC β cells [5])
1 | C[C@H](NC(=O)Cc1cc(F)cc(F)c1)C(=O)N[C@H](C(=O)OC(C)(C)C)c1ccccc1 [DAPT, N—[N-(3,5-Difluorophenacetyl)-L-alanyl]-S-phenylglycine t-butyl ester] | significantly increased | 80% | 71% | not responsive | – | – | – | – | – | –
2 | COc1ccc2c(c1)[nH]c1c(C)nccc12 [harmine] | – | – | – | – | decreased NFAT1 nuclear translocation after 4 hours | 15% | 26% | statistically significant increase | 10 µM | over 10 μM
